The assay addresses T1, human NK-2 receptor (Homo sapiens, UniProt P21452).
T1 construct: expressed in transfected cells; host or cells: CHO (Chinese hamster ovary) cells, membranes
T1 sequence (P21452 1-398): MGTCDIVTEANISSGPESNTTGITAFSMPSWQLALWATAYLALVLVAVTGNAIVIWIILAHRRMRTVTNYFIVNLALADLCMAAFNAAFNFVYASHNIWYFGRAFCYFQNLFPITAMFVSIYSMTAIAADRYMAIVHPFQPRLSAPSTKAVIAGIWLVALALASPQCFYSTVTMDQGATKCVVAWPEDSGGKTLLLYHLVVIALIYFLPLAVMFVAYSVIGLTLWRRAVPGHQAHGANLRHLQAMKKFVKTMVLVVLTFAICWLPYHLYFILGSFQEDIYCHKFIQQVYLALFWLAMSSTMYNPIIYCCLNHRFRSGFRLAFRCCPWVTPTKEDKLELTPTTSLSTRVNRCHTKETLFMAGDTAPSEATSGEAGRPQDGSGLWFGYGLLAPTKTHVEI
The assay is described as follows: binding test, affinity for the human NK-2 receptor, competition with [125I]NKA on transfected CHO cell membranes. To be noted: CHO cell membranes transfected with NK-2 receptor of human ileum; [125I]NKA 100 pM; 30 min, 20° C. As for the experimental part: The evaluation of the antagonist activity on NK-2 receptors has been assessed by binding and functional tests according to that already described in literature in relation to NK-2 antagonists.
The test substances have been tested within a concentration range from 0.01 nM to 10 nM. At the end of the incubation time (30 min, 20° C.) the samples have been filtered and radioactivity has been determined using a gamma-counter.

The Ki is the equilibrium dissociation constant of an inhibitor or competing ligand from its target. Read a high Ki as a looser hold on the target. As a reminder, the pKi is the Ki on a negative log10 scale, so that one unit is a factor of ten. Read a low pKi as a high Ki.

`Cc1cccc2cc(C(=O)NC3(C(=O)N[C@H](Cc4ccccc4)C(=O)NCC4CCN(CC5CCOCC5)CC4)CCCC3)sc12` [Example 134, 7-Methyl-benzo[b]thiophene-2-carboxylic acid [1-(2-phenyl-1R-{[1-(tetrahydro-pyran-4-ylmethyl)-piperidin-4-ylmethyl]-carbamoyl}-ethylcarbamoyl)-cyclopentyl]-amide] showed a Ki of 63.1 pM. In the case of `O=C(NC1(C(=O)N[C@H](Cc2ccccc2)C(=O)NCC2CCN(CC3CCOCC3)CC2)CCCC1)c1cc2cccc(C(F)(F)F)c2s1` [Example 136, 7-Trifluoromethyl-benzo[b]thiophene-2-carboxylic acid [1-(2-phenyl-1R-{[1-(tetrahydro-pyran-4-ylmethyl)piperidin-4-ylmethyl]-carbamoyl}-ethylcarbamoyl)-cyclopentyl]-amide], affinity was put at a Ki of 63.1 pM. Regarding `O=C(NC1(C(=O)N[C@H](Cc2ccccc2)C(=O)NCC2CCN(CC3CCOCC3)CC2)CCCC1)c1cc2cccc(Cl)c2s1` [Example 137, 7-Chloro-benzo[b]thiophene-2-carboxylic acid [1-(2-phenyl-1R-{[1-(tetrahydro-pyran-4-ylmethyl)-piperidin-4-ylmethyl]-carbamoyl}-ethylcarbamoyl)-cyclopentyl]-amide], the affinity, expressed as Ki, was 79.4 pM. `Cc1ccc2sc(C(=O)NC3(C(=O)N[C@H](Cc4ccccc4)C(=O)NCC4CCN(CC5CCOCC5)CC4)CCCC3)cc2c1` [Example 138, 5-Methyl-benzo[b]thiophene-2-carboxylic acid [1-(2-phenyl-1R-{[1-(tetrahydro-pyran-4-ylmethyl)piperidin-ylmethyl]-carbamoyl}-ethylcarbamoyl)-cyclopentyl]-amide] showed a pKi of 9.8. In the case of `CCN(CC)c1ccc2cc(C(=O)NC3(C(=O)N[C@H](Cc4ccccc4)C(=O)NCC4CCN(CC5CCOCC5)CC4)CCCC3)oc2c1` [Example 145, 6-Diethylamino-benzofuran-2-carboxylic acid [1-(2-phenyl-1-{[1R-(tetrahydro-pyran-4-ylmethyl)-piperidin-4-ylmethyl)-carbamoyl}-ethylcarbamoyl)-cyclopentyl]-amide], the affinity, expressed as Ki, was 501 pM. For the compound `COc1ccc2oc(C(=O)NC3(C(=O)N[C@H](Cc4ccccc4)C(=O)NCC4CCN(CC5CCOCC5)CC4)CCCC3)cc2c1` [Example 146, 5-Methoxy-benzofuran-2-carboxylic acid [1-(2-phenyl-1-{[1R-(tetrahydro-pyran-4-ylmethyl)-piperidin-4-ylmethyl]-carbamoyl}-ethylcarbamoyl)-cyclopentyl]-amide], the affinity, expressed as Ki, was 398 pM. In turn, `CCN(CC)c1ccc2oc(C(=O)NC3(C(=O)N[C@H](Cc4ccccc4)C(=O)NCC4CCN(CC5CCOCC5)CC4)CCCC3)cc2c1` [Example 147] gave a Ki of 631 pM. The compound `Cc1cc2oc(C(=O)NC3(C(=O)N[C@H](Cc4ccccc4)C(=O)NCC4CCN(CC5CCOCC5)CC4)CCCC3)c(C)c2cc1C` [Example 148, 3,5,6-Trimethyl-benzofuran-2-carboxylic acid [1-(2-phenyl-1-{[1R-(tetrahydro-pyran-4-ylmethyl)-piperidin-4-ylmethyl]-carbamoyl}-ethylcarbamoyl)-cyclopentyl]-amide] gave a Ki of 316 pM. In turn, `O=C(NC1(C(=O)NC(Cc2ccccc2)C(=O)NCC2CCN(CC3CCOCC3)CC2)CCCC1)c1ccc2ccccc2c1` (stereo not drawn) [Example 149, Naphthalene-2-carboxylic acid [1-(2-phenyl-1-{[1R-(tetrahydro-pyran-4-ylmethyl)-piperidin-4ylmethyl]-carbamoyl}-ethylcarbamoyl)-cyclopentyl]-amide] showed a pKi of 9.9. `O=C(NC1(C(=O)N[C@H](Cc2ccccc2)C(=O)NCC2CCN(CC3CCOCC3)CC2)CCCC1)c1ccc2ccccc2c1` [Example 151, Naphthalene-2-carboxylic acid [1-(2-phenyl-1R-{[1-(tetrahydro-pyran-4-ylmethyl)-piperidin-4-ylmethyl]-carbamoyl}-ethylcarbamoyl)-cyclopentyl]-amide] gave a Ki of 1260 pM.

Turning to `O=C(NC1(C(=O)N[C@H](Cc2ccccc2)C(=O)NCC2CN(CC3CCOCC3)C2)CCCC1)c1cc2ccccc2s1` [Example 152, Benzo[b]thiophene-2-carboxylic acid [1-(2-phenyl-1(R)-{[1-(tetrahydro-pyran-4-ylmethyl)-azetidin-3-ylmethyl]-carbamoyl}-ethylcarbamoyl)-cyclopentyl]-amide], the affinity, expressed as Ki, was 126 pM. The compound “Benzo[b]thiophene-2-carboxylic acid [1-(2-phenyl-1(R)-{[1-(tetrahydro-pyran-4-yl)-piperidin-4-ylmethyl]-carbamoyl}-ethylcarbamoyl)-cyclopentyl]-amide [Example 73]” had a pKi of 9.3. “N^γ{N^α[N^α(benzo[b]thiophen-2-ylcarbonyl)-1-aminocyclopentan-1-carboxy]-D-phenylalanyl}-(1R,3S)-3-aminocyclopentane-1-carboxylic-acid-N-((1S,2S)2-dimethylaminocyclohexyl) amide hydrochloride salt [Example 8]” registered a negative-log Ki (pKi) of 9.6.

For the origin of these results see patent US7273856B2, “Linear basic compounds having NK-2 antagonist activity and formulations thereof” (Menarini Ricerche S.P.A., priority 2001, dated 2007).
